Source: patent US8410302B2, “Methoxyimino compounds and fungicide composition comprising same” (Kyung Nong Corporation, priority 2007, dated 2013)

How the values were obtained:
[1] = system: Pyricularia oryzae Carvara KA301; test: whole plant or invertebrate; assay type: in vivo; settings: rice blast
Botrytis cinerae = test: Fungicidal activity against cucumber gray mold rot (CGM) disease, control value; assay type: in vivo; settings: 100 ppm, cucumber gray mold rot
Description: Botrytis cinerae, which was isolated from cucumber infected thereby, was inoculated on a potato agar medium (PEC) and cultured under a 12L/12D cycle at 25° C. for 15 days to form spore. The spores were scraped, filtered through a gauze and then suspended in Potato Dextrose broth at a concentration of 1×10^6 spore/ml. The spore suspension was sprayed on a cucumber plant having one leaf. The cucumber plant was held in a humidified room at 20° C. for 3 days. L.A. on a leaf was measured to calculate a C.V.

Phytophthora infestans = test: whole plant or invertebrate; assay type: in vivo; settings: tomato late blight
Puccinia recondita = test: Fungicidal activity against wheat leaf rust (WLR) disease, control value; assay type: in vivo; settings: wheat leaf rust
Erysiphae graminis = test: Fungicidal activity against barley powdery mildew (BPM) disease, control value; assay type: in vivo; settings: barley powdery mildew
Rhizoctonia solani AG-1 = test: Fungicidal activity against rice sheath blight (RSB) disease, control value; settings: rice sheath blight

| SMILES | RCB control value (C.V.) ([1]; 2 ppm) [%] | RCB control value (C.V.) ([1]; 10 ppm) [%] | RCB control value (C.V.) ([1]; 50 ppm) [%] | RCB control value (C.V.) ([1]; 100 ppm) [%] | CGM control value (C.V.) (Botrytis cinerae) [%] | TLB control value (C.V.) (Phytophthora infestans; 2 ppm) [%] | TLB control value (C.V.) (Phytophthora infestans; 10 ppm) [%] | TLB control value (C.V.) (Phytophthora infestans; 50 ppm) [%] | TLB control value (C.V.) (Phytophthora infestans; 100 ppm) [%] | WLR control value (C.V.) (Puccinia recondita; 2 ppm) [%] | WLR control value (C.V.) (Puccinia recondita; 10 ppm) [%] | WLR control value (C.V.) (Puccinia recondita; 50 ppm) [%] | WLR control value (C.V.) (Puccinia recondita; 100 ppm) [%] | BPM control value (C.V.) (Erysiphae graminis; 2 ppm) [%] | BPM control value (C.V.) (Erysiphae graminis; 10 ppm) [%] | BPM control value (C.V.) (Erysiphae graminis; 50 ppm) [%] | BPM control value (C.V.) (Erysiphae graminis; 100 ppm) [%] | RSB control value (C.V.) (Rhizoctonia solani AG-1; 100 ppm) [%] | RSB control value (C.V.) (Rhizoctonia solani AG-1; 2 ppm) [%] | RSB control value (C.V.) (Rhizoctonia solani AG-1; 10 ppm) [%] | also measured |
| --- | --- | --- | --- | --- | --- | --- | --- | --- | --- | --- | --- | --- | --- | --- | --- | --- | --- | --- | --- | --- | --- |
| CO/N=C(/C(=O)OC)c1ccccc1CON=C(C)c1ccc(C=C(Cl)Cl)cc1 [Example 21, methyl-(E)-2-[[[[[2-[4-(2,2-dichlorovinyl)phenyl](1-methyl)methylidene]amino]oxy]methyl]phenyl]-2-methoxyiminoacetate] | 30 | 90 | 100 | 100 | 50 | 0 | 35 | 95 | 98 | 40 | 90 | 100 | 100 | 20 | 50 | 95 | 95 | 60 |  |  |  |
| CNC(=O)/C(=N/OC)c1ccccc1CON=C(C)c1ccc(C=C(Cl)Cl)cc1 [Example 22, (E)-2-[[[[[2-[4-(2,2-dichlorovinyl)phenyl](1-methyl)methylidene]amino]oxy]methyl]phenyl]-2-methoxyimino-N-methylacetamide] | 100 | 100 | 100 | 100 | 45 | 90 | 100 | 100 | 100 | 100 | 100 | 100 | 100 | 98 | 100 | 100 | 100 | 100 | 90 | 98 | RSB control value (C.V.) (Rhizoctonia solani AG-1; 50 ppm): 100% |
| CO/N=C(/C(=O)OC)c1ccccc1CON=C(C)c1cccc(C=C(Br)Br)c1 [Example 23, methyl-(E)-2-[[[[[2-[3-(2,2-dibromovinyl)phenyl](1-methyl)methylidene]amino]oxy]methyl]phenyl]-2-methoxyiminoacetate] | 90 | 97 | 100 | 100 | 34 |  |  | 55 | 93 |  |  |  | 80 | 20 | 50 | 80 | 95 | 100 | 98 | 100 | RSB control value (C.V.) (Rhizoctonia solani AG-1; 50 ppm): 100% |
| CNC(=O)/C(=N/OC)c1ccccc1CON=C(C)c1cccc(C=C(Br)Br)c1 [Example 24, (E)-2-[[[[[2-[3-(2,2-dibromovinyl)phenyl](1-methyl)methylidene]amino]oxy]methyl]phenyl]-2-methoxyimino-N-methylacetamide] | 98 | 100 | 100 | 100 | 60 |  |  |  | 50 | 0 | 35 | 95 | 98 | 10 | 60 | 90 | 100 | 100 | 30 | 90 | RSB control value (C.V.) (Rhizoctonia solani AG-1; 50 ppm): 100% |
| CO/N=C(/C(=O)OC)c1ccccc1CON=C(C)c1ccc(C=C(Br)Br)cc1 [Example 25, methyl-(E)-2-[[[[[2-[4-(2,2-dibromovinyl)phenyl](1-methyl)methylidene]amino]oxy]methyl]phenyl]-2-methoxyiminoacetate] | 100 | 100 | 100 | 100 | 35 | 93 | 100 | 100 | 100 | 100 | 100 | 100 | 100 | 100 | 100 | 100 | 100 | 100 | 90 | 98 | RSB control value (C.V.) (Rhizoctonia solani AG-1; 50 ppm): 100% |
| CNC(=O)/C(=N/OC)c1ccccc1CON=C(C)c1ccc(C=C(Br)Br)cc1 [Example 26, (E)-2-[[[[[2-[4-(2,2-dibromovinyl)phenyl](1-methyl)methylidene]amino]oxy]methyl]phenyl]-2-methoxyimino-N-methylacetamide] | 90 | 97 | 100 | 100 | 7 | 98 | 100 | 100 | 100 | 90 | 90 | 98 | 100 | 99 | 100 | 100 | 100 | 32 |  |  |  |
| CO/N=C(/C(=O)OC)c1ccccc1CON=C(C)c1cccc(C=C(F)F)c1 [Example 27, methyl-(E)-2-[[[[[2-[3-(2,2-difluorovinyl)phenyl](1-methyl)methylidene]amino]oxy]methyl]phenyl]-2-methoxyiminoacetate] | 90 | 97 | 100 | 100 | 55 | 98 | 100 | 100 | 100 | 100 | 100 | 100 | 100 | 98 | 100 | 100 | 100 | 0 |  |  |  |
| CNC(=O)/C(=N/OC)c1ccccc1CON=C(C)c1cccc(C=C(F)F)c1 [Example 28, (E)-2-[[[[[2-[3-(2,2-difluorovinyl)phenyl](1-methyl)methylidene]amino]oxy]methyl]phenyl]-2-methoxyimino-N-methylacetamide] |  |  | 70 | 95 | 50 |  |  |  | 60 | 40 | 90 | 100 | 100 |  |  | 60 | 90 | 35 |  |  |  |
